Measurements taken from ChEMBL document CHEMBL3991601, “The target landscape of clinical kinase drugs” (Science, 2017).
Calls of active or inactive are those of the source. Rule as the data show it, for most assays here: actives have a measured Kd and inactives only a lower limit.

Columns and labels:
[1] = molecular target: T1, Ribosyldihydronicotinamide dehydrogenase [quinone] (Homo sapiens, UniProt P16083)
T1 sequence (P16083 whole entry): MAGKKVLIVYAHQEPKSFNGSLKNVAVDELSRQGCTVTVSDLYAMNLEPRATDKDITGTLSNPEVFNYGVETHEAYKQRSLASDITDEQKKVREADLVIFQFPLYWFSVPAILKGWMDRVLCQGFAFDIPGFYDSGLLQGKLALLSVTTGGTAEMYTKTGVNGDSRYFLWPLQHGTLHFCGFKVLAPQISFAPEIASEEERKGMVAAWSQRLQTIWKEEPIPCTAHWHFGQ

[2] = molecular target: T2, STE20-related kinase adapter protein alpha (Homo sapiens, UniProt Q7RTN6)
T2 sequence (Q7RTN6 whole entry): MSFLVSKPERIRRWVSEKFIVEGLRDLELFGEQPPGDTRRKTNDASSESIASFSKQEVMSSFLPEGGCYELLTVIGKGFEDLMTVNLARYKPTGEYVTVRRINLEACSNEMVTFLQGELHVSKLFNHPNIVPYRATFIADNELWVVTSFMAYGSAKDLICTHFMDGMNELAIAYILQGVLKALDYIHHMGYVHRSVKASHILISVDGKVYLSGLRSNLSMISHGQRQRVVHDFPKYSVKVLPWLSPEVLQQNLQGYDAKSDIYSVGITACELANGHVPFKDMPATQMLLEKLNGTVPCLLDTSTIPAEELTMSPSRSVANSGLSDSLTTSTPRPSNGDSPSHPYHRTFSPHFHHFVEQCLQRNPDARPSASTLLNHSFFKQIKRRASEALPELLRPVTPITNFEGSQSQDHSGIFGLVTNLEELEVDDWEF

[3] = molecular target: Protein-tyrosine kinase 6 (Homo sapiens, UniProt Q13882)
Chain of Protein-tyrosine kinase 6 (Q13882 whole entry): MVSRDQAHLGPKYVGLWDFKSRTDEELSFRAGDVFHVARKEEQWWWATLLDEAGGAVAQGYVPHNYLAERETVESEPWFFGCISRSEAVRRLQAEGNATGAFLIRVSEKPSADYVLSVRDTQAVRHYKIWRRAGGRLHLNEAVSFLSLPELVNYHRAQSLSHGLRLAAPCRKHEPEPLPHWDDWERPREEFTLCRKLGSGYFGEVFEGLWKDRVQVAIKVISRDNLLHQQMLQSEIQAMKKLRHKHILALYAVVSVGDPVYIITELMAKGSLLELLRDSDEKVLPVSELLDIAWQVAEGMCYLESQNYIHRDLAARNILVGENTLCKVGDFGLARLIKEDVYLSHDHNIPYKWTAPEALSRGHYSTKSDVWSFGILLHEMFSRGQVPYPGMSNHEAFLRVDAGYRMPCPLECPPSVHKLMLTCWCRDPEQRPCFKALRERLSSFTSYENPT

[4] = molecular target: Serine/threonine-protein kinase MRCK gamma (Homo sapiens, UniProt Q6DT37)
Chain of Serine/threonine-protein kinase MRCK gamma (Q6DT37 whole entry): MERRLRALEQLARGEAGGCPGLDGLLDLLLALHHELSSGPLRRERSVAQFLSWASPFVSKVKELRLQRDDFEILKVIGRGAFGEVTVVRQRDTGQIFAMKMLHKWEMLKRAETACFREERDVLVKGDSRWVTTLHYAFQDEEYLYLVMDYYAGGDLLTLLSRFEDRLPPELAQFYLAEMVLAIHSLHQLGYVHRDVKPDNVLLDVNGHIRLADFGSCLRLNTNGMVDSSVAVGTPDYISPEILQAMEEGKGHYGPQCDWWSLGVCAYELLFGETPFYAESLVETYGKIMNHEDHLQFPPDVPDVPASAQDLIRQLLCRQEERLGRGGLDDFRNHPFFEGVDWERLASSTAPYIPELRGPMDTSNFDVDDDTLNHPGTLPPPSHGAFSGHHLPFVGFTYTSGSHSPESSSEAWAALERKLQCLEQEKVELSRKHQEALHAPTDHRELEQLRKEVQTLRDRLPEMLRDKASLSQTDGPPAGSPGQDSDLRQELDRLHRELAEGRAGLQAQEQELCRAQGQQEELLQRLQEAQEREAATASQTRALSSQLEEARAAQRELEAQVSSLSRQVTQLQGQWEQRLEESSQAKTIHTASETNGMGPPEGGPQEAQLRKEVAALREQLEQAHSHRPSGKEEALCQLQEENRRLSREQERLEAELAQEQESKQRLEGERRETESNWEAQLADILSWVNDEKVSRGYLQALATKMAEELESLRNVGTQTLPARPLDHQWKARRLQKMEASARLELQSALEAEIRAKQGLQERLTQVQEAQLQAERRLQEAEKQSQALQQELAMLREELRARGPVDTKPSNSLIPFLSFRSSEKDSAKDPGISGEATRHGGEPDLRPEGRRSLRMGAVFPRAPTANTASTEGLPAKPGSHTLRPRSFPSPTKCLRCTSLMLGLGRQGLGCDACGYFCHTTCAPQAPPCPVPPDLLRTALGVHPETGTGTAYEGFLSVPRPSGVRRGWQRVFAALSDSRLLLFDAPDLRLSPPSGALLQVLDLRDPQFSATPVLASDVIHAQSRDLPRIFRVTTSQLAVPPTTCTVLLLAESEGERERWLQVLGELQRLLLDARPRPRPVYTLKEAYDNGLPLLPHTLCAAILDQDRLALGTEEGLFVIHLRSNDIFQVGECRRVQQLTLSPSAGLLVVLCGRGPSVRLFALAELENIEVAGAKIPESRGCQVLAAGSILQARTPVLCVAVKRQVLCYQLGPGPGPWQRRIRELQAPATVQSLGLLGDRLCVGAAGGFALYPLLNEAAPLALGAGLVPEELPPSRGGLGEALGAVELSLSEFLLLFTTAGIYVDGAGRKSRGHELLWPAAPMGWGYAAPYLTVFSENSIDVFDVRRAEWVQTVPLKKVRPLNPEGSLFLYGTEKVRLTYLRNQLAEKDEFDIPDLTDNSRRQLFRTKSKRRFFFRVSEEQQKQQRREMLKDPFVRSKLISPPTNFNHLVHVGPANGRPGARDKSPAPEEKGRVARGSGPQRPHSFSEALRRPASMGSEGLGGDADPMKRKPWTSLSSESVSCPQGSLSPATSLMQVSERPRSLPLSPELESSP

[5] = molecular target: GTP-binding nuclear protein Ran (Homo sapiens, UniProt P62826)
[6] = molecular target: Fibroblast growth factor receptor 1 (Homo sapiens, UniProt P11362)
Chain of Fibroblast growth factor receptor 1 (P11362 whole entry): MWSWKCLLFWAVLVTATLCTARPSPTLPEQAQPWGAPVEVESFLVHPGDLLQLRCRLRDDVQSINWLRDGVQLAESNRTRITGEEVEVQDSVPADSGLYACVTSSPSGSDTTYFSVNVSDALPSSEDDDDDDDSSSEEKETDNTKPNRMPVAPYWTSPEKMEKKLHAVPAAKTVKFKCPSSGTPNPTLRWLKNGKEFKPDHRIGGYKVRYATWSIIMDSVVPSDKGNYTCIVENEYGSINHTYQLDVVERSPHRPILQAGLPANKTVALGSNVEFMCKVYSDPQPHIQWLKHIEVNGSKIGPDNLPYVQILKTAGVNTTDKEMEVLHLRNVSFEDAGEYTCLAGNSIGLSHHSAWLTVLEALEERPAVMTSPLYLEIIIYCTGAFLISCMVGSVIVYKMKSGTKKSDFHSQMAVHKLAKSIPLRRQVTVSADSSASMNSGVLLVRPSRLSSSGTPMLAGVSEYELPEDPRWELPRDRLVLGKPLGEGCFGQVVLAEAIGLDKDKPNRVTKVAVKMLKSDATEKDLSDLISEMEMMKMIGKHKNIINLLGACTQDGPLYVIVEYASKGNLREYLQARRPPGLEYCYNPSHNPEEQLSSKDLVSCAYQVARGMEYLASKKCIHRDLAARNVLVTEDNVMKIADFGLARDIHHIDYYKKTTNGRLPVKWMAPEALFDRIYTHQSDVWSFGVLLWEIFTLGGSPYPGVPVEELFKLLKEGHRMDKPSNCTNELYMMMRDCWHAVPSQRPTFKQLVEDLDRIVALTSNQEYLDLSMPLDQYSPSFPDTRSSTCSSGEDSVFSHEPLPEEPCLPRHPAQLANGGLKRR

[7] = molecular target: Glycogen synthase kinase-3 alpha (Homo sapiens, UniProt P49840)
Chain of Glycogen synthase kinase-3 alpha (P49840 whole entry): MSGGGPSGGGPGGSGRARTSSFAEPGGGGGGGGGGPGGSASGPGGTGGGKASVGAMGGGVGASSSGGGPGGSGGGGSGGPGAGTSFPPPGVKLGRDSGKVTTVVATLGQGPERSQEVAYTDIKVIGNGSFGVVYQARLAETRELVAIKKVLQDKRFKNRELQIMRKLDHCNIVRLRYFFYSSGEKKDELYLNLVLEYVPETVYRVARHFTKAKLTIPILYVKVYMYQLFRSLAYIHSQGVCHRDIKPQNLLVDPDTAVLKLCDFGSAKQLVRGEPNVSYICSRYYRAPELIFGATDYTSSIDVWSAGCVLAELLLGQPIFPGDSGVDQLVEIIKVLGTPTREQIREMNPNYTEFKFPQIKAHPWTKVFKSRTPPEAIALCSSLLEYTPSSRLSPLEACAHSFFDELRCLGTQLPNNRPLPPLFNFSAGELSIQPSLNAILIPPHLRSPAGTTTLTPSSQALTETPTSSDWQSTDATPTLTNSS

[8] = molecular target: T3, Mitogen-activated protein kinase kinase kinase kinase 2 (Homo sapiens, UniProt Q12851)
T3 sequence (Q12851 whole entry): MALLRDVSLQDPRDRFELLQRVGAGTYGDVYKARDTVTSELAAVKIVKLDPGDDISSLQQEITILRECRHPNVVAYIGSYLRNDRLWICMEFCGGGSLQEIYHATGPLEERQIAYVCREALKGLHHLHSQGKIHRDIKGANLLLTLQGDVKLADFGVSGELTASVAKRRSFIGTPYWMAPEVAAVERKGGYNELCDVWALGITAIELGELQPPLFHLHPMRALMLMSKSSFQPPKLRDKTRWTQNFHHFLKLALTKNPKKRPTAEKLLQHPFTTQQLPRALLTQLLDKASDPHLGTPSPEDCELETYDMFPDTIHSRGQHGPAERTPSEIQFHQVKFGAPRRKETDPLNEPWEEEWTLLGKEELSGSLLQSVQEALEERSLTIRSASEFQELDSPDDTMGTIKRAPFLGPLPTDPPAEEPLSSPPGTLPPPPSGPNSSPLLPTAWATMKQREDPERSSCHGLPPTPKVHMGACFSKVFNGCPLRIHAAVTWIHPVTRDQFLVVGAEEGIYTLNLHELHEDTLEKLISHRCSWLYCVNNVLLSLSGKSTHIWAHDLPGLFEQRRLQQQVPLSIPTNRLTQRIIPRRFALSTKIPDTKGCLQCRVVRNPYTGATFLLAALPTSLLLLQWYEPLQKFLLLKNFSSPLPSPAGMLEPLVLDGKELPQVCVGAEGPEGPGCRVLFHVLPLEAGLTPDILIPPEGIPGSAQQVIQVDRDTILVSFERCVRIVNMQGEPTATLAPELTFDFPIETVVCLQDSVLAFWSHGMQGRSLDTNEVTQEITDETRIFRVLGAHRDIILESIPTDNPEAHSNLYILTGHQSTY

[9] = molecular target: T4, DNA replication licensing factor MCM4 (Homo sapiens, UniProt P33991)
T4 sequence (P33991 whole entry): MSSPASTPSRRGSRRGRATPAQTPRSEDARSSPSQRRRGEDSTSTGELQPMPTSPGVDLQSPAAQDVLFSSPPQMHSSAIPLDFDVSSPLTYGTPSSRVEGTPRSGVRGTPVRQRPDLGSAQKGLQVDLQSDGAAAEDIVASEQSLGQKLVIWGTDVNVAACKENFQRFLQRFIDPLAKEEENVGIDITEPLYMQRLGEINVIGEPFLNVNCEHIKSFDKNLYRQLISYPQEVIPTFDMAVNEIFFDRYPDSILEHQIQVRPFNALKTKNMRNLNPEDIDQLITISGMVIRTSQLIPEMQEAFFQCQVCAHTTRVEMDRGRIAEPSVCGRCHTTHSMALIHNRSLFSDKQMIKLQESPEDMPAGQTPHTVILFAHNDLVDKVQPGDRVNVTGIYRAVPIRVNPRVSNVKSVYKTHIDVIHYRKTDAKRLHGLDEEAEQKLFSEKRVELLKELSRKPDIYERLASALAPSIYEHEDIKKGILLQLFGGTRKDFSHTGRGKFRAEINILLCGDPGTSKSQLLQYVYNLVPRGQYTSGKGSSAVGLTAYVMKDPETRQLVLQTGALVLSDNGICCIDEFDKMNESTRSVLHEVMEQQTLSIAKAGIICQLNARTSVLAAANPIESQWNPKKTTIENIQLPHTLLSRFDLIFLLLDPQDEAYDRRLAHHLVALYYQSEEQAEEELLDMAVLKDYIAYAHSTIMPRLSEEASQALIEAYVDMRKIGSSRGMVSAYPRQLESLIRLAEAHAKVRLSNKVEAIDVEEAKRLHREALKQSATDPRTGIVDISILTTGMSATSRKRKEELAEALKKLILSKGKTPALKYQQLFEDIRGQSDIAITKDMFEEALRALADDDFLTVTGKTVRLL
Also: in the data inactive means no Kd found up to 30 µM.

Compound	Kd [1]	Kd [2]	Kd [3]	Kd [4]	Kd [5]	Kd [6]	Kd [7]	Kd [8]	Kd [9]
C[C@@H](Oc1cc(C(=O)Nc2ccc(C(=O)N3CCN(C)CC3)cc2)nnc1N)c1c(Cl)ccc(F)c1Cl	> 30 µM (inactive)	> 30 µM (inactive)	> 30 µM (inactive)	> 30 µM (inactive)	> 30 µM (inactive)	> 30 µM (inactive)	> 30 µM (inactive)	0.122 µM (active)	> 30 µM (inactive)
C[C@H]1CNCCCN1S(=O)(=O)c1cccc2cncc(F)c12	3.7 µM (active)	–	> 30 µM (inactive)	> 30 µM (inactive)	> 30 µM (inactive)	> 30 µM (inactive)	> 30 µM (inactive)	> 30 µM (inactive)	> 30 µM (inactive)
CC(=O)c1cnc2ccc(-c3cc(Cl)c(O)c(Cl)c3)nc2c1N[C@H]1CC[C@H](CN(C)C)CC1	> 30 µM (inactive)	> 30 µM (inactive)	> 30 µM (inactive)	0.063 µM	> 30 µM (inactive)	> 30 µM (inactive)	0.087 µM (active)	–	> 30 µM (inactive)
C=CC(=O)N1CCC[C@H](n2c(=O)n(-c3ccc(Oc4ccccc4)cc3)c3c(N)ncnc32)C1	> 30 µM (inactive)	> 30 µM (inactive)	0.025 µM	> 30 µM (inactive)	> 30 µM (inactive)	> 30 µM (inactive)	> 30 µM (inactive)	> 30 µM (inactive)	> 30 µM (inactive)
Nc1ncnc2c1c(-c1cccc(OCc3ccccc3)c1)cn2[C@H]1C[C@@H](CN2CCC2)C1 [AEW-541]	> 30 µM (inactive)	> 30 µM (inactive)	1.94 µM (active)	> 30 µM (inactive)	> 30 µM (inactive)	> 30 µM (inactive)	> 30 µM (inactive)	4.58 µM (active)	> 30 µM (inactive)
Cc1nc(NC(=O)N2CCC[C@H]2C(N)=O)sc1-c1ccnc(C(C)(C)C(F)(F)F)c1 [ALPELISIB]	> 30 µM (inactive)	> 30 µM (inactive)	> 30 µM (inactive)	> 30 µM (inactive)	> 30 µM (inactive)	> 30 µM (inactive)	> 30 µM (inactive)	> 30 µM (inactive)	> 30 µM (inactive)
Cc1csc(-c2nnc(Nc3ccc(Oc4ncccc4-c4ccnc(N)n4)cc3)c3ccccc23)c1 [AMG-900]	3.35 µM (active)	> 30 µM (inactive)	> 30 µM (inactive)	> 30 µM (inactive)	> 30 µM (inactive)	> 30 µM (inactive)	> 30 µM (inactive)	0.186 µM (active)	> 30 µM (inactive)
C=CC(=O)Nc1cc2c(Nc3ccc(F)c(Cl)c3)ncnc2cc1C#CC(C)(C)N1CCN(C)CC1 [AV-412 FREE BASE]	> 30 µM (inactive)	> 30 µM (inactive)	> 30 µM (inactive)	> 30 µM (inactive)	> 30 µM (inactive)	> 30 µM (inactive)	> 30 µM (inactive)	> 30 µM (inactive)	> 30 µM (inactive)
COc1cc([C@@H]2c3cc4c(cc3[C@H](O)[C@H]3COC(=O)[C@@H]23)OCO4)cc(OC)c1OC [AXL-1717]	> 30 µM (inactive)	> 30 µM (inactive)	> 30 µM (inactive)	> 30 µM (inactive)	> 30 µM (inactive)	> 30 µM (inactive)	> 30 µM (inactive)	> 30 µM (inactive)	> 30 µM (inactive)
NC(=O)Nc1cc(-c2cccc(F)c2)sc1C(=O)N[C@H]1CCCNC1 [AZD-7762]	> 30 µM (inactive)	> 30 µM (inactive)	1.37 µM (active)	> 30 µM (inactive)	> 30 µM (inactive)	> 30 µM (inactive)	> 30 µM (inactive)	0.05 µM (active)	> 30 µM (inactive)
Cc1cc(C(=O)NOCCO)c(Nc2ccc(I)cc2F)n(C)c1=O [AZD-8330]	> 30 µM (inactive)	> 30 µM (inactive)	> 30 µM (inactive)	> 30 µM (inactive)	> 30 µM (inactive)	> 30 µM (inactive)	> 30 µM (inactive)	> 30 µM (inactive)	> 30 µM (inactive)
Cn1cnc2c(F)c(Nc3ccc(Br)cc3F)c(C(=O)NOCCO)cc21 [BINIMETINIB]	14.7 µM (active)	> 30 µM (inactive)	> 30 µM (inactive)	> 30 µM (inactive)	> 30 µM (inactive)	> 30 µM (inactive)	> 30 µM (inactive)	> 30 µM (inactive)	> 30 µM (inactive)
CCn1c(C(=O)N(C2CC2)C2CC2)cc2c3c(ncn3C)c(Nc3cc(C)n(C)n3)nc21 [BMS-911543]	5.86 µM (active)	> 30 µM (inactive)	> 30 µM (inactive)	> 30 µM (inactive)	> 30 µM (inactive)	> 30 µM (inactive)	> 30 µM (inactive)	> 30 µM (inactive)	> 30 µM (inactive)
COc1cc2ncnc(Oc3cccc(NC(=O)Nc4cc(C(C)(C)C(F)(F)F)on4)c3)c2cc1OC [CEP-32496]	> 30 µM (inactive)	> 30 µM (inactive)	> 30 µM (inactive)	> 30 µM (inactive)	> 30 µM (inactive)	> 30 µM (inactive)	> 30 µM (inactive)	2.82 µM (active)	> 30 µM (inactive)
COc1ccc(S(=O)(=O)N(C(C)=O)c2ccccc2/C=C/c2cc[n+]([O-])cc2)cc1 [HMN-214]	> 30 µM (inactive)	> 30 µM (inactive)	> 30 µM (inactive)	> 30 µM (inactive)	> 30 µM (inactive)	> 30 µM (inactive)	> 30 µM (inactive)	> 30 µM (inactive)	–
Cn1ncc(Cl)c1-c1cc(C(=O)N[C@H](CN)Cc2ccc(F)c(F)c2)oc1Cl [UPROSERTIB]	> 30 µM (inactive)	> 30 µM (inactive)	> 30 µM (inactive)	> 30 µM (inactive)	> 30 µM (inactive)	> 30 µM (inactive)	> 30 µM (inactive)	> 30 µM (inactive)	–
